Results: US5391540A, “Substituted pyridine compounds” (Rohm and Haas Company, priority 1993, dated 1995)

What was measured:
Type in all cases: in vivo
[1] = tested on: Bygr; test: plant injury after spraying emerged plants (Table D); set-up: scale not given here
Excerpt: (§1) Topsoil (silt loam) is sieved through a screen having 1.27 cm openings. […] This mixture is steam sterilized and then placed in aluminum pans 6.985 cm deep having ten holes in the bottom each 0.635 cm in diameter. The soil mixture is compacted to a depth of 1.27 cm. from the top of the pan. A predetermined number of seeds of each of several dicotyledonous and monocotyledonous annual plant species and/or vegetative propagules for the perennial plant species are placed on the soil and pressed into the soil surface. The seeds and/or vegetative propagules are covered with 1.27 cm of a mixture of 50% topsoil and 50% of a mixture of Canadian sphagnum peat moss, vermiculite and a wetting agent. The pans are then placed on a capillary mat on a greenhouse bench and subirrigated as needed.
(§2) In the following Table D the legends used to identify the plant species are the same as those used in the preceding Table B.

[2] = tested on: Cobu; test: as above; set-up: scale not given here
Excerpt: as §1, §2

[3] = tested on: Grft; test: as above; set-up: scale not given here
Excerpt: as §1, §2

[4] = tested on: Lacg; test: as above; set-up: scale not given here
Excerpt: as §1, §2

[5] = tested on: Mogl; test: as above; set-up: scale not given here
Excerpt: as §1, §2

[6] = tested on: Corn; test: as above; set-up: scale not given here
Excerpt: as §1, §2

[7] = tested on: Sobe; test: as above; set-up: scale not given here
Excerpt: as §1, §2

[8] = tested on: Whez; test: as above; set-up: scale not given here
Excerpt: as §1, §2

[9] = tested on: Grso; test: as above; set-up: scale not given here
Excerpt: as §1, §2

[10] = tested on: Morningglory; test: Pre-emergent herbicidal activity (Table A); settings: Ipomoea, pre-emergence, Mogl, 11.2 kg/ha, 10-14 days, read-out: herbicidal rating (% inhibition)
Procedure, shortened: (§3)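 Seeds or vegetative propagules were set on topsoil compacted to 0.95 to 1.27 cm below the pan rim, then covered with soil thoroughly mixed with a known amount of test compound in acetone or water carrier. Ratings follow a scale of percent inhibition per species.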

[11] = tested on: Barnyardgrass; test: Pre-emergent herbicidal activity (Table A); settings: Echinochloa crus-galli, pre-emergence, Bygr, 11.2 kg/ha, 10-14 days, read-out: herbicidal rating (% inhibition)
Procedure, shortened: as §3

[12] = tested on: Cocklebur; test: Pre-emergent herbicidal activity (Table A); settings: Xanthium strumarium, pre-emergence, Cobu, 11.2 kg/ha, 10-14 days, read-out: herbicidal rating (% inhibition)
Procedure, shortened: as §3

[13] = tested on: Yellow Nutsedge; test: Pre-emergent herbicidal activity (Table A); settings: Cyperus, pre-emergence, Yens, 11.2 kg/ha, 10-14 days, read-out: herbicidal rating (% inhibition)
Procedure, shortened: as §3

[14] = tested on: Downy Brome; test: Pre-emergent herbicidal activity (Table A); settings: Bromus tectorum, pre-emergence, Dobr, 11.2 kg/ha, 10-14 days, read-out: herbicidal rating (% inhibition)
Procedure, shortened: as §3

[15] = tested on: Velvetleaf; test: Pre-emergent herbicidal activity (Table A); settings: Abutilon theophrasti, pre-emergence, Vele, 11.2 kg/ha, 10-14 days, read-out: herbicidal rating (% inhibition)
Procedure, shortened: as §3

[16] = tested on: Dobr; test: plant injury after spraying emerged plants (Table D)
Excerpt: Topsoil (silt loam) is sieved through a screen having 1.27 cm openings. In some of the tests the soil was mixed with fertilizer (1225 g/cu. m of 12/5/9 containing isobutylidene diurea), while in other tests the fertilizer was omitted. This mixture is steam sterilized and then placed in aluminum pans 6.985 cm deep having ten holes in the bottom each 0.635 cm in diameter. The soil mixture is compacted to a depth of 1.27 cm. from the top of the pan. A predetermined number of seeds of each of several dicotyledonous and monocotyledonous annual plant species and/or vegetative propagules for the perennial plant species are placed on the soil and pressed into the soil surface. The seeds and/or vegetative propagules are covered with 1.27 cm of a mixture of 50% topsoil and 50% of a mixture of Canadian sphagnum peat moss, vermiculite and a wetting agent. The pans are then placed on a capillary mat on a greenhouse bench and subirrigated as needed. After the plants reach the desired stage (9 to 14 days, 1 to 3 true leaf stage), each pan (except the control pans) is removed to a spraying chamber and sprayed by means of an atomizer, operating at a spray pressure of 170.3 kPa ([…]) at the application rates noted in Table D. In the spray solution is an amount of an emulsifying agent mixture (35% butylamine salt of dodecylbenzenesulfonic acid and 65% tall oil condensed with ethylene oxide in the ratio of 11 mols of ethylene oxide/mol of tall oil) to give a spray solution or suspension. The spray solution or suspension contains a sufficient amount of the candidate chemical in order to give application rates of the active ingredient corresponding to those shown in Table D below while applying a total amount of solution or suspension equivalent to 1870 L/Ha (200 gallons/acre). The pans are returned to the greenhouse and watered as before and the injury to the plants as compared to the control pans is observed at approximately 10-14 days (usually 11 days).
as §2

COC(=O)c1c(OC)nc(C(F)(F)F)c(C(=O)n2ccc(F)n2)c1C1CCC1 [Compound 140, 3-pyridinecarboxylic acid, 4-cyclobuty1-5-[(3-fluoro-1H-pyrazo1-1-yl)carbonyl]-2-methoxy-6-(trifluoromethyl)-, methyl ester]
plant injury rating, Bygr ([1]; 0.2803 kg/ha): 0
plant injury rating, Bygr ([1]; 1.1210 kg/ha): 0
plant injury rating, Bygr ([1]; 5.6050 kg/ha): 0
plant injury rating, Cobu ([2]; 0.2803 kg/ha): 1
plant injury rating, Cobu ([2]; 1.1210 kg/ha): 3
plant injury rating, Cobu ([2]; 5.6050 kg/ha): 3
plant injury rating, Grft ([3]; 0.2803 kg/ha): 0
plant injury rating, Grft ([3]; 1.1210 kg/ha): 0
plant injury rating, Grft ([3]; 5.6050 kg/ha): 0
plant injury rating, Lacg ([4]; 0.2803 kg/ha): 2
plant injury rating, Lacg ([4]; 1.1210 kg/ha): 2
plant injury rating, Lacg ([4]; 5.6050 kg/ha): 3
plant injury rating, Mogl ([5]; 0.2803 kg/ha): 2
plant injury rating, Mogl ([5]; 1.1210 kg/ha): 2
plant injury rating, Mogl ([5]; 5.6050 kg/ha): 2
plant injury rating, Corn ([6]; 0.2803 kg/ha): 2
plant injury rating, Corn ([6]; 1.1210 kg/ha): 1
plant injury rating, Corn ([6]; 5.6050 kg/ha): 2
plant injury rating, Sobe ([7]; 1.1210 kg/ha): 2
plant injury rating, Sobe ([7]; 5.6050 kg/ha): 2
plant injury rating, Whez ([8]; 0.2803 kg/ha): 0
plant injury rating, Whez ([8]; 1.1210 kg/ha): 0
plant injury rating, Whez ([8]; 5.6050 kg/ha): 0
plant injury rating, Grso ([9]; 0.2803 kg/ha): 0
plant injury rating, Grso ([9]; 1.1210 kg/ha): 0
plant injury rating, Grso ([9]; 5.6050 kg/ha): 0
inhibition at 11200 g/ha [10]: 75 to 100%
inhibition at 11200 g/ha [11]: 75 to 100%
inhibition at 11200 g/ha [12]: 0 to 24%
inhibition at 11200 g/ha [13]: 0 to 24%
inhibition at 11200 g/ha [14]: 75 to 100%
inhibition at 11200 g/ha [15]: 75 to 100%
plant injury rating, Dobr ([16]; 0.2803 kg/ha): 0
plant injury rating, Dobr ([16]; 1.1210 kg/ha): 0
plant injury rating, Dobr ([16]; 5.6050 kg/ha): 0
